# Reference: PubChem BioAssay (NCI)
#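 These data come from cells grown in 96-well plates and exposed to compound for 48 hours at five concentrations. Abbreviation: GI50, concentration required for 50% inhibition of growth. TGI is the concentration that stops growth completely.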
# What was measured:
# Experiment in all cases: DTP human tumour cell line panel, 48 h
# HCT-15 colon = test system: HCT-15 colon
# COLO 205 colon = test system: COLO 205 colon
# SW-620 colon = test system: SW-620 colon
# A498 renal = test system: A498 renal
# HOP-62 NSCLC = test system: HOP-62 NSCLC
# OVCAR-5 ovarian = test system: OVCAR-5 ovarian
# IGROV1 ovarian = test system: IGROV1 ovarian
# LOX IMVI melanoma = test system: LOX IMVI melanoma
# SF-539 CNS = test system: SF-539 CNS
# DU-145 prostate = test system: DU-145 prostate
# ACHN renal = test system: ACHN renal
# HL-60(TB) leukemia = test system: HL-60(TB) leukemia
# MDA-MB-435 = test system: MDA-MB-435
# HS 578T breast = test system: HS 578T breast
# OVCAR-4 ovarian = test system: OVCAR-4 ovarian
# U251 CNS = test system: U251 CNS
# NCI-H23 lung = test system: NCI-H23 lung
# SK-OV-3 ovarian = test system: SK-OV-3 ovarian
# UACC-62 melanoma = test system: UACC-62 melanoma
# HT29 colon = test system: HT29 colon
# OVCAR-3 ovarian = test system: OVCAR-3 ovarian
# M14 melanoma = test system: M14 melanoma
# MOLT-4 leukemia = test system: MOLT-4 leukemia
# OVCAR-8 ovarian = test system: OVCAR-8 ovarian
# RXF 393 renal = test system: RXF 393 renal
# HCC-2998 colon = test system: HCC-2998 colon
# NCI-H226 lung = test system: NCI-H226 lung
# T-47D breast = test system: T-47D breast
# SK-MEL-28 melanoma = test system: SK-MEL-28 melanoma
# K-562 leukemia = test system: K-562 leukemia
# HOP-92 NSCLC = test system: HOP-92 NSCLC
# NCI-H460 lung = test system: NCI-H460 lung
# KM12 colon = test system: KM12 colon
# SK-MEL-2 melanoma = test system: SK-MEL-2 melanoma
# CAKI-1 renal = test system: CAKI-1 renal
# SNB-19 CNS = test system: SNB-19 CNS
# NCI/ADR-RES ovarian = test system: NCI/ADR-RES ovarian
# PC-3 prostate = test system: PC-3 prostate
# UO-31 renal = test system: UO-31 renal
# SNB-75 CNS = test system: SNB-75 CNS
# TK-10 renal = test system: TK-10 renal
# MCF7 breast = test system: MCF7 breast
# SK-MEL-5 melanoma = test system: SK-MEL-5 melanoma
# HCT-116 colon = test system: HCT-116 colon
# MALME-3M melanoma = test system: MALME-3M melanoma
# A549 NSCLC = test system: A549 NSCLC
# NCI-H522 lung = test system: NCI-H522 lung
# SF-295 CNS = test system: SF-295 CNS
# RPMI-8226 leukemia = test system: RPMI-8226 leukemia
# 786-0 renal = test system: 786-0 renal
# MDA-MB-231 breast = test system: MDA-MB-231 breast
# CCRF-CEM leukemia = test system: CCRF-CEM leukemia
# SN12C renal = test system: SN12C renal
# SF-268 CNS = test system: SF-268 CNS
# BT-549 breast = test system: BT-549 breast
# UACC-257 melanoma = test system: UACC-257 melanoma
# SR leukemia = test system: SR leukemia
# EKVX NSCLC = test system: EKVX NSCLC
smiles,measurement,setting,value
CC(=O)[O-].CC(=O)[O-].[NH2-].[Pt+2].c1ccncc1,TGI,HCT-15 colon,> 100 µM
same,TGI,COLO 205 colon,> 100 µM
same,TGI,SW-620 colon,> 100 µM
same,TGI,A498 renal,> 100 µM
same,TGI,HOP-62 NSCLC,> 100 µM
same,TGI,OVCAR-5 ovarian,> 100 µM
same,TGI,IGROV1 ovarian,> 100 µM
same,TGI,LOX IMVI melanoma,> 100 µM
same,TGI,SF-539 CNS,55.1 µM
same,GI50,DU-145 prostate,4.62 µM
same,TGI,DU-145 prostate,51.9 µM
same,TGI,ACHN renal,32.2 µM
same,TGI,HL-60(TB) leukemia,43.7 µM
same,GI50,MDA-MB-435,53.2 µM
same,TGI,MDA-MB-435,> 100 µM
same,GI50,HS 578T breast,98.7 µM
same,TGI,HS 578T breast,> 100 µM
same,TGI,OVCAR-4 ovarian,> 100 µM
same,TGI,U251 CNS,> 100 µM
same,TGI,NCI-H23 lung,> 100 µM
same,TGI,SK-OV-3 ovarian,> 100 µM
same,TGI,UACC-62 melanoma,> 100 µM
same,TGI,HT29 colon,> 100 µM
same,TGI,OVCAR-3 ovarian,> 100 µM
same,TGI,M14 melanoma,> 100 µM
same,TGI,MOLT-4 leukemia,27.3 µM
same,TGI,OVCAR-8 ovarian,40.1 µM
same,TGI,RXF 393 renal,64.6 µM
same,TGI,HCC-2998 colon,> 100 µM
same,TGI,NCI-H226 lung,> 100 µM
same,GI50,T-47D breast,59.4 µM
same,TGI,T-47D breast,> 100 µM
same,TGI,SK-MEL-28 melanoma,> 100 µM
same,TGI,K-562 leukemia,71.6 µM
same,TGI,HOP-92 NSCLC,> 100 µM
same,TGI,NCI-H460 lung,> 100 µM
same,TGI,KM12 colon,> 100 µM
same,TGI,SK-MEL-2 melanoma,> 100 µM
same,TGI,CAKI-1 renal,> 100 µM
same,TGI,SNB-19 CNS,> 100 µM
same,GI50,NCI/ADR-RES ovarian,80 µM
same,TGI,NCI/ADR-RES ovarian,> 100 µM
same,GI50,PC-3 prostate,> 100 µM
same,TGI,PC-3 prostate,> 100 µM
same,TGI,UO-31 renal,> 100 µM
same,TGI,SNB-75 CNS,> 100 µM
same,TGI,TK-10 renal,> 100 µM
same,GI50,MCF7 breast,19.4 µM
same,TGI,MCF7 breast,65.9 µM
same,TGI,SK-MEL-5 melanoma,> 100 µM
same,TGI,HCT-116 colon,> 100 µM
same,TGI,MALME-3M melanoma,> 100 µM
same,TGI,A549 NSCLC,> 100 µM
same,TGI,NCI-H522 lung,44.2 µM
same,TGI,SF-295 CNS,> 100 µM
same,TGI,RPMI-8226 leukemia,> 100 µM
same,TGI,786-0 renal,> 100 µM
same,GI50,MDA-MB-231 breast,> 100 µM
same,TGI,MDA-MB-231 breast,> 100 µM
same,TGI,CCRF-CEM leukemia,> 100 µM
same,TGI,SN12C renal,> 100 µM
same,TGI,SF-268 CNS,> 100 µM
CCOC(=O)c1cc(C(=O)c2cc(OC)cc(OC)c2)n2ncc3ccccc3c12,GI50,HCT-15 colon,0.484 µM
same,TGI,HCT-15 colon,> 100 µM
same,GI50,HL-60(TB) leukemia,0.82 µM
same,TGI,HL-60(TB) leukemia,> 100 µM
same,GI50,HS 578T breast,1.84 µM
same,TGI,HS 578T breast,> 100 µM
same,GI50,BT-549 breast,1.18 µM
same,TGI,BT-549 breast,> 100 µM
same,GI50,UACC-257 melanoma,> 100 µM
same,TGI,UACC-257 melanoma,> 100 µM
same,GI50,UACC-62 melanoma,0.692 µM
same,TGI,UACC-62 melanoma,> 100 µM
same,GI50,M14 melanoma,0.485 µM
same,TGI,M14 melanoma,> 100 µM
same,GI50,SNB-19 CNS,1.57 µM
same,TGI,SNB-19 CNS,> 100 µM
same,GI50,NCI/ADR-RES ovarian,0.476 µM
same,TGI,NCI/ADR-RES ovarian,> 100 µM
same,GI50,PC-3 prostate,0.839 µM
same,TGI,PC-3 prostate,> 100 µM
same,GI50,MCF7 breast,0.41 µM
same,TGI,MCF7 breast,> 100 µM
same,GI50,SK-MEL-5 melanoma,0.623 µM
same,TGI,SK-MEL-5 melanoma,> 100 µM
same,GI50,SF-295 CNS,0.483 µM
same,TGI,SF-295 CNS,> 100 µM
same,GI50,SR leukemia,0.442 µM
same,TGI,SR leukemia,> 100 µM
same,GI50,SF-268 CNS,1.59 µM
same,TGI,SF-268 CNS,> 100 µM
CC1(C)C[C@H]2C=C(C=O)[C@]34C[C@]3(C(=O)OC4O)[C@H]2C1 (some centres not stated),TGI,HCT-15 colon,4.7 µM
same,TGI,COLO 205 colon,1.44 µM
same,TGI,SW-620 colon,> 100 µM
same,TGI,HOP-62 NSCLC,45.1 µM
same,TGI,OVCAR-5 ovarian,5.14 µM
same,TGI,IGROV1 ovarian,9.75 µM
same,TGI,DU-145 prostate,16.5 µM
same,TGI,ACHN renal,8.07 µM
same,TGI,EKVX NSCLC,4.34 µM
same,TGI,HS 578T breast,> 100 µM
same,TGI,OVCAR-4 ovarian,7.86 µM
same,TGI,BT-549 breast,4.56 µM
same,TGI,U251 CNS,51.7 µM
same,TGI,SK-OV-3 ovarian,50.3 µM
same,TGI,HT29 colon,4.96 µM
same,TGI,OVCAR-3 ovarian,8.47 µM
same,TGI,MOLT-4 leukemia,> 100 µM
same,TGI,OVCAR-8 ovarian,3.67 µM
same,TGI,HCC-2998 colon,12.3 µM
same,TGI,NCI-H226 lung,26.9 µM
same,TGI,T-47D breast,4.63 µM
same,TGI,SK-MEL-28 melanoma,9.4 µM
same,TGI,K-562 leukemia,> 100 µM
same,TGI,NCI-H460 lung,53.4 µM
same,TGI,KM12 colon,5.6 µM
same,TGI,CAKI-1 renal,5.04 µM
same,TGI,SNB-19 CNS,> 100 µM
same,TGI,PC-3 prostate,8.74 µM
same,TGI,UO-31 renal,6.92 µM
same,TGI,SNB-75 CNS,6.87 µM
same,TGI,TK-10 renal,4.53 µM
same,TGI,MCF7 breast,5.54 µM
same,TGI,SK-MEL-5 melanoma,9.32 µM
same,TGI,A549 NSCLC,13.1 µM
same,TGI,SF-295 CNS,23.9 µM
same,TGI,RPMI-8226 leukemia,> 100 µM
same,TGI,SR leukemia,> 100 µM
same,TGI,MDA-MB-231 breast,6.47 µM
same,TGI,CCRF-CEM leukemia,> 100 µM
same,TGI,SN12C renal,> 100 µM
COc1ccc2c(c1)nc1n2C(c2c(F)cccc2Cl)SC1 (configuration not stated),TGI,HCT-15 colon,> 37.2 µM
same,TGI,COLO 205 colon,> 54.9 µM
same,TGI,SW-620 colon,> 60.2 µM
same,TGI,A498 renal,> 29.7 µM
same,TGI,HOP-62 NSCLC,> 44.6 µM
same,TGI,OVCAR-5 ovarian,> 100 µM
same,TGI,IGROV1 ovarian,> 100 µM
same,TGI,LOX IMVI melanoma,> 61.6 µM
same,TGI,SF-539 CNS,16.1 µM
same,TGI,DU-145 prostate,> 29.3 µM
same,TGI,ACHN renal,> 82.9 µM
same,TGI,EKVX NSCLC,> 100 µM
same,TGI,HS 578T breast,6.4 µM
same,TGI,OVCAR-4 ovarian,> 100 µM
same,TGI,BT-549 breast,> 31.3 µM
same,TGI,U251 CNS,> 35.4 µM
same,TGI,NCI-H23 lung,> 35 µM
same,TGI,UACC-257 melanoma,> 43.2 µM
same,TGI,SK-OV-3 ovarian,> 38.1 µM
same,TGI,UACC-62 melanoma,> 100 µM
same,TGI,HT29 colon,> 100 µM
same,TGI,OVCAR-3 ovarian,> 26.1 µM
same,TGI,M14 melanoma,> 24.7 µM
same,TGI,MOLT-4 leukemia,> 41.4 µM
same,TGI,OVCAR-8 ovarian,51 µM
same,TGI,RXF 393 renal,> 22 µM
same,TGI,HCC-2998 colon,> 39.8 µM
same,TGI,NCI-H226 lung,43.4 µM
same,TGI,T-47D breast,> 52.5 µM
same,TGI,SK-MEL-28 melanoma,37.2 µM
same,TGI,K-562 leukemia,> 100 µM
same,TGI,HOP-92 NSCLC,> 100 µM
same,TGI,NCI-H460 lung,> 35.1 µM
same,TGI,KM12 colon,> 54.4 µM
same,TGI,SK-MEL-2 melanoma,> 27.7 µM
same,TGI,CAKI-1 renal,> 100 µM
same,TGI,SNB-19 CNS,> 58.7 µM
same,TGI,NCI/ADR-RES ovarian,4.81 µM
same,TGI,PC-3 prostate,> 51.6 µM
same,TGI,UO-31 renal,> 100 µM
same,TGI,SNB-75 CNS,7.85 µM
same,TGI,TK-10 renal,> 76.8 µM
same,TGI,MCF7 breast,> 34.8 µM
same,TGI,SK-MEL-5 melanoma,> 43.2 µM
same,TGI,HCT-116 colon,> 37 µM
same,TGI,MALME-3M melanoma,5.43 µM
same,TGI,A549 NSCLC,> 50.6 µM
same,TGI,SF-295 CNS,> 24.8 µM
same,TGI,RPMI-8226 leukemia,> 47.8 µM
same,TGI,786-0 renal,> 41.1 µM
same,TGI,SR leukemia,> 36.4 µM
same,TGI,MDA-MB-231 breast,27.9 µM
same,TGI,CCRF-CEM leukemia,> 100 µM
same,TGI,SN12C renal,> 100 µM
same,TGI,SF-268 CNS,90.6 µM
